Test results: US5663162A, “Cephem derivatives” (priority 1993, dated 1997)
≈ marks a conversion by molar mass, not a printed value. Read-outs that look alike come from different tables or passages of the source.

How the values were obtained:
Assay in all cases: Antibacterial activity test, MIC by two-fold dilution method
S. Aureus 126 = type: cell-based, Staphylococcus aureus (methicillin-resistant, MRSA); conditions: Staphylococcus aureus; S. Aureus 126 (MRSA); 10^6 CFU/ml, 35° C., 18 to 20 hours; read-out: Minimum Inhibition Concentration
Method: (§1) The measurement was carried out in the following manner: 10^6 CFU/ml of a bacterium to be tested was inoculated on a Medium N for disc susceptibility test (manufactured by Nissui Pharmaceutical Co., Ltd.), and cultivated at 35° C. for 18 to 20 hours.

S. Aureus 133 = type: cell-based, Staphylococcus aureus (methicillin-resistant, MRSA); conditions: Staphylococcus aureus, read-out: Minimum Inhibition Concentration
Method: as §1

P. aeruginosa GN10362 = type: cell-based; conditions: Pseudomonas aeruginosa
Method: as §1

P. aeruginosa E-2 = type: cell-based; conditions: Pseudomonas aeruginosa
Method: as §1

S. Aureus 209P JC-1 = type: cell-based; conditions: Staphylococcus aureus, read-out: Minimum Inhibition Concentration
Method: as §1

E. cloacae G-0008 = type: cell-based; conditions: Enterobacter cloacae
Method: as §1

E. coli NIHJ JC-2 = type: cell-based; conditions: Escherichia coli
Method: as §1

C. freundii GN346/16 = type: cell-based; conditions: Citrobacter freundii
Method: as §1

S. epidermidis ATCC14990 = type: cell-based; conditions: Staphylococcus epidermidis
Method: as §1

S. marcescens No. 1 = type: cell-based; conditions: Serratia marcescens
Method: as §1

P. vulgaris GN76 = type: cell-based; conditions: Proteus vulgaris
Method: as §1

M. morganii 1510/S-1 = type: cell-based; conditions: Morganella morganii
Method: as §1

K. pneumoniae PC1602 = type: cell-based; conditions: Klebsiella pneumoniae
Method: as §1

[1] = S. Aureus 133 (MRSA), 10^6 CFU/ml, 35° C., 18 to 20 hours
[2] = GN10362, read-out: Minimum Inhibition Concentration
[3] = E2, read-out: Minimum Inhibition Concentration
[4] = GN346, read-out: Minimum Inhibition Concentration
[5] = ATCC14990, read-out: Minimum Inhibition Concentration
[6] = NO.1, read-out: Minimum Inhibition Concentration
[7] = GN76, read-out: Minimum Inhibition Concentration
[8] = 1510/S1, read-out: Minimum Inhibition Concentration
[9] = P. aeruginosa GN10362, 10^6 CFU/ml, 35° C., 18 to 20 hours, read-out: Minimum Inhibition Concentration
[10] = E2, P. aeruginosa E-2, 10^6 CFU/ml, 35° C., 18 to 20 hours, read-out: Minimum Inhibition Concentration
[11] = S. Aureus 209P JC-1, 10^6 CFU/ml, 35° C., 18 to 20 hours
[12] = G0008, E. cloacae G-0008, 10^6 CFU/ml, 35° C., 18 to 20 hours, read-out: Minimum Inhibition Concentration
[13] = NIHJJC2, E. coli NIHJ JC-2, 10^6 CFU/ml, 35° C., 18 to 20 hours, read-out: Minimum Inhibition Concentration
[14] = C. freundii GN346/16, 10^6 CFU/ml, 35° C., 18 to 20 hours, read-out: Minimum Inhibition Concentration
[15] = S. marcescens No. 1, 10^6 CFU/ml, 35° C., 18 to 20 hours, read-out: Minimum Inhibition Concentration
[16] = P. vulgaris GN76, 10^6 CFU/ml, 35° C., 18 to 20 hours, read-out: Minimum Inhibition Concentration
[17] = 1510/S1, M. morganii 1510/S-1, 10^6 CFU/ml, 35° C., 18 to 20 hours, read-out: Minimum Inhibition Concentration
[18] = K. pneumoniae PC1602, 10^6 CFU/ml, 35° C., 18 to 20 hours, read-out: Minimum Inhibition Concentration
[19] = S. epidermidis ATCC14990, 10^6 CFU/ml, 35° C., 18 to 20 hours, read-out: Minimum Inhibition Concentration

Structure (SMILES) | MIC (S. Aureus 126) | MIC (S. Aureus 133; [1]) | MIC (P. aeruginosa GN10362; [2]) | MIC (S. Aureus 209P JC-1; 209P) | MIC (S. epidermidis ATCC14990; [5]) | MIC (P. vulgaris GN76; [7]) | MIC (S. Aureus 133; MRSA) | MIC (P. aeruginosa GN10362; [9]) | MIC (P. aeruginosa E-2; [10]) | MIC (S. Aureus 209P JC-1; [11]) | MIC (E. cloacae G-0008; [12]) | MIC (E. coli NIHJ JC-2; [13]) | MIC (C. freundii GN346/16; [14]) | MIC (S. marcescens No. 1; [15]) | MIC (P. vulgaris GN76; [16]) | MIC (M. morganii 1510/S-1; [17]) | MIC (K. pneumoniae PC1602; [18]) | MIC (S. epidermidis ATCC14990; [19]) | also measured
CC(C)(O/N=C(\C(=O)N[C@@H]1C(=O)N2C(C(=O)[O-])=C(C[n+]3ccccc3)CS[C@H]12)c1csc(N)n1)C(=O)O [CAZ, Ceftazidime, reference compound] | > 100 µg/mL | 100 µg/mL (≈ 183 µM) | 1.56 µg/mL (≈ 2.85 µM) | 6.25 µg/mL (≈ 11.4 µM) | 6.25 µg/mL (≈ 11.4 µM) | 0.05 µg/mL (≈ 0.0915 µM) | – | – | – | – | – | – | – | – | – | – | – | – | MIC (P. aeruginosa E-2; [3]): 1.56 µg/mL (≈ 2.85 µM); MIC (E. cloacae G-0008; G0008, read-out: Minimum Inhibition Concentration): 0.2 µg/mL (≈ 0.366 µM); MIC (E. coli NIHJ JC-2; NIHJJC2, read-out: Minimum Inhibition Concentration): 0.39 µg/mL (≈ 0.714 µM); MIC (C. freundii GN346/16; [4]): 0.39 µg/mL (≈ 0.714 µM); MIC (S. marcescens No. 1; [6]): 0.05 µg/mL (≈ 0.0915 µM); MIC (M. morganii 1510/S-1; [8]): 0.2 µg/mL (≈ 0.366 µM); MIC (K. pneumoniae PC1602; PC1602, read-out: Minimum Inhibition Concentration): 0.1 µg/mL (≈ 0.183 µM)
CO/N=C(\C(=O)N[C@@H]1C(=O)N2C(C(=O)[O-])=C(C[n+]3cccc4c3CCC4)CS[C@H]12)c1csc(N)n1 [CPR, Cefpirome, reference compound] | 50 µg/mL (≈ 97.2 µM) | – | – | – | 0.39 µg/mL (≈ 0.758 µM) | – | 6.25 µg/mL (≈ 12.1 µM) | 3.13 µg/mL (≈ 6.08 µM) | 3.13 µg/mL (≈ 6.08 µM) | 0.2 µg/mL (≈ 0.389 µM) | 0.05 µg/mL (≈ 0.0972 µM) | 0.05 µg/mL (≈ 0.0972 µM) | 0.05 µg/mL (≈ 0.0972 µM) | ≤ 0.025 µg/mL | 0.2 µg/mL (≈ 0.389 µM) | ≤ 0.025 µg/mL | 0.05 µg/mL (≈ 0.0972 µM) | – | –
C[C@H](O/N=C(\C(=O)N[C@@H]1C(=O)N2C(C(=O)[O-])=C(C[n+]3cc4sccn4c3)CS[C@H]12)c1csc(N)n1)C(=O)O [Example 2, (6R,7R)-7-[(Z)-2-(2-Aminothiazol-4-yl)-2-((S)-l-carboxyethoxy-imino)acetamide]-3-(imidazo[5,1-b]thiazolium-6-yl)methyl-3-cephem-4-carboxylate] | > 100 µg/mL | 100 µg/mL (≈ 173 µM) | – | 6.25 µg/mL (≈ 10.8 µM) | 6.25 µg/mL (≈ 10.8 µM) | – | – | 0.78 µg/mL (≈ 1.35 µM) | 0.78 µg/mL (≈ 1.35 µM) | – | 0.05 µg/mL (≈ 0.0866 µM) | 0.05 µg/mL (≈ 0.0866 µM) | – | ≤ 0.025 µg/mL | ≤ 0.025 µg/mL | ≤ 0.025 µg/mL | ≤ 0.025 µg/mL | – | MIC (C. freundii GN346/16; [4]): 0.39 µg/mL (≈ 0.675 µM)
CO/N=C(\C(=O)N[C@@H]1C(=O)N2C(C(=O)[O-])=C(C[n+]3cc4sccn4c3)CS[C@H]12)c1nsc(N)n1 [Example 30, (6R,7R)-7-[(Z)-2-(5-Amino-1,2,4-thiadiazol-3-yl)-2-methoxyiminoacetamide]-3-(imidazo [5, l-b]thiazolium-6-yl)methyl-3-cephem-4-carboxylate] | 25 µg/mL (≈ 48 µM) | 12.5 µg/mL (≈ 24 µM) | 1.56 µg/mL (≈ 3 µM) | 0.39 µg/mL (≈ 0.749 µM) | 0.39 µg/mL (≈ 0.749 µM) | 0.39 µg/mL (≈ 0.749 µM) | – | – | 3.13 µg/mL (≈ 6.01 µM) | – | 0.05 µg/mL (≈ 0.096 µM) | 0.05 µg/mL (≈ 0.096 µM) | 0.1 µg/mL (≈ 0.192 µM) | 0.05 µg/mL (≈ 0.096 µM) | – | 0.1 µg/mL (≈ 0.192 µM) | 0.05 µg/mL (≈ 0.096 µM) | – | –
CO/N=C(\C(=O)N[C@@H]1C(=O)N2C(C(=O)[O-])=C(C[n+]3cc4sccn4c3CO)CS[C@H]12)c1nsc(N)n1 [Example 31] | 12.5 µg/mL (≈ 22.7 µM) | – | – | – | – | 0.39 µg/mL (≈ 0.708 µM) | 6.25 µg/mL (≈ 11.4 µM) | 3.13 µg/mL (≈ 5.68 µM) | 3.13 µg/mL (≈ 5.68 µM) | 0.78 µg/mL (≈ 1.42 µM) | 0.05 µg/mL (≈ 0.0908 µM) | ≤ 0.025 µg/mL | 0.1 µg/mL (≈ 0.182 µM) | 0.05 µg/mL (≈ 0.0908 µM) | – | 0.05 µg/mL (≈ 0.0908 µM) | 0.05 µg/mL (≈ 0.0908 µM) | 0.78 µg/mL (≈ 1.42 µM) | –
CO/N=C(\C(=O)N[C@@H]1C(=O)N2C(C(=O)[O-])=C(C[n+]3cc4scc(C(N)=O)n4c3)CS[C@H]12)c1nsc(N)n1 [Example 44, (6R,7R)-7-[(Z)-2-(5-Amino-1,2,4-thiadiazol-3-yl)-2-methoxyiminoacetamide]-3-(3-carbamoylimidazo[5,1-b]thiazolium-6-yl)methyl-3-cephem-4-carboxylate] | 25 µg/mL (≈ 44.4 µM) | 12.5 µg/mL (≈ 22.2 µM) | 1.56 µg/mL (≈ 2.77 µM) | – | – | – | – | – | – | 0.78 µg/mL (≈ 1.38 µM) | 0.05 µg/mL (≈ 0.0887 µM) | ≤ 0.025 µg/mL | 0.1 µg/mL (≈ 0.177 µM) | 0.05 µg/mL (≈ 0.0887 µM) | 0.2 µg/mL (≈ 0.355 µM) | 0.05 µg/mL (≈ 0.0887 µM) | ≤ 0.025 µg/mL | 0.78 µg/mL (≈ 1.38 µM) | MIC (P. aeruginosa E-2; [3]): 1.56 µg/mL (≈ 2.77 µM)
NC(=O)c1csc2c[n+](CC3=C(C(=O)[O-])N4C(=O)[C@@H](NC(=O)/C(=N\OCCF)c5nsc(N)n5)[C@H]4SC3)cn12 [Example 48, (6R,7R)-7-[(Z)-2-(5-Amino-2,4-thiadiazol-3-yl)-2-(2-fluoroethoxyimino)acetamide]-3-(3-carbamoylimidazo[5,1-b]thiazolium-6-yl)methyl-3-cephem-4-carboxylate] | 12.5 µg/mL (≈ 21 µM) | – | – | 0.39 µg/mL (≈ 0.655 µM) | 0.39 µg/mL (≈ 0.655 µM) | – | 6.25 µg/mL (≈ 10.5 µM) | 0.78 µg/mL (≈ 1.31 µM) | 0.78 µg/mL (≈ 1.31 µM) | – | ≤ 0.025 µg/mL | ≤ 0.025 µg/mL | 0.1 µg/mL (≈ 0.168 µM) | ≤ 0.025 µg/mL | 0.2 µg/mL (≈ 0.336 µM) | ≤ 0.025 µg/mL | ≤ 0.025 µg/mL | – | –
Nc1nc(/C(=N/OC2CCCC2)C(=O)N[C@@H]2C(=O)N3C(C(=O)[O-])=C(C[n+]4cc5sccn5c4)CS[C@H]23)ns1 [Example 112, (6R,7R)-7-[(Z)-2-(5-Amino-1,2,4-thiadiazol-3-yl)-2-cyclopentyl-oxyiminoacetamide]-3-(imidazo[5,1-b]thiazolium-6-yl)methyl-3-cephem-4-carboxylate] | 3.13 µg/mL (≈ 5.45 µM) | 3.13 µg/mL (≈ 5.45 µM) | – | 0.39 µg/mL (≈ 0.679 µM) | – | – | – | 3.13 µg/mL (≈ 5.45 µM) | 3.13 µg/mL (≈ 5.45 µM) | – | 0.78 µg/mL (≈ 1.36 µM) | 0.78 µg/mL (≈ 1.36 µM) | 0.78 µg/mL (≈ 1.36 µM) | – | 3.13 µg/mL (≈ 5.45 µM) | – | 0.78 µg/mL (≈ 1.36 µM) | 0.2 µg/mL (≈ 0.348 µM) | MIC (S. marcescens No. 1; [6]): 1.56 µg/mL (≈ 2.71 µM); MIC (M. morganii 1510/S-1; [8]): 0.39 µg/mL (≈ 0.679 µM)
Nc1nc(/C(=N/OCCF)C(=O)N[C@@H]2C(=O)N3C(C(=O)[O-])=C(C[n+]4cc5sccn5c4)CS[C@H]23)ns1 [Example 133, (6R,7R)-7-[(Z)-2-(5-Amino-1,2,4-thiadiazol-3-yl)-2-(2-fluoroethoxyimino)acetamide]3-cephem-4-carboxylate] | 12.5 µg/mL (≈ 22.6 µM) | – | – | 0.39 µg/mL (≈ 0.706 µM) | 0.39 µg/mL (≈ 0.706 µM) | – | 6.25 µg/mL (≈ 11.3 µM) | 0.78 µg/mL (≈ 1.41 µM) | 0.78 µg/mL (≈ 1.41 µM) | – | ≤ 0.025 µg/mL | ≤ 0.025 µg/mL | 0.1 µg/mL (≈ 0.181 µM) | ≤ 0.025 µg/mL | 0.2 µg/mL (≈ 0.362 µM) | ≤ 0.025 µg/mL | ≤ 0.025 µg/mL | – | –
